The record followed here is ChEMBL document CHEMBL3046751, “Effects of Pyridalyl on ATP Concentrations in Cultured Sf9 Cells” (J Pestic Sci, 2005).

The source made the active and inactive calls. The rule behind the calls is not given here.

What all share (type): functional, cell-based
In test [1] the test system is Sf9. As to the kind of experiment: Reduction of ATP level in Spodoptera frugiperda (fall armyworm) Sf9 cells at 10 uM after 6 to 24 hr by luminescent cell viability assay.
The subject of test [2] is Sf9. Nature of the test: Reduction of ATP level in Spodoptera frugiperda (fall armyworm) Sf9 cells at 0.1 to 1 uM after 6 to 24 hr by luminescent cell viability assay.
Test [3] concerns Sf9. As to the kind of experiment: Increase of ATP level in Spodoptera frugiperda (fall armyworm) Sf9 cells at 10 uM after 6 to 24 hr by luminescent cell viability assay.
In test [4] the test system is Sf9. As to the kind of experiment: Reduction of ATP level in Spodoptera frugiperda (fall armyworm) Sf9 cells at 0.1 to 10 uM after 4 hr by luminescent cell viability assay.
The test system of test [5] is Sf9. Nature of the test: Reduction of ATP level in Spodoptera frugiperda (fall armyworm) Sf9 cells after 20 to 24 hr by luminescent cell viability assay.
Test [6] deals with Sf9. As to the kind of experiment: Reduction of ATP level in Spodoptera frugiperda (fall armyworm) Sf9 cells at 1 to 10 uM after 4 hr by luminescent cell viability assay.
Test [7] relates to Sf9. Nature of the test: Reduction of ATP level in Spodoptera frugiperda (fall armyworm) Sf9 cells at 0.1 uM after 24 hr by luminescent cell viability assay.
In test [8] the test system is Sf9. Nature of the test: Cytotoxicity against Spodoptera frugiperda (fall armyworm) Sf9 cells at 0.01 uM.
For test [9], the system named is Sf9. As to the kind of experiment: Reduction of ATP level in Spodoptera frugiperda (fall armyworm) Sf9 cells at 1 uM after 8 hr by luminescent cell viability assay.
The subject of test [10] is Sf9. Nature of the test: Reduction of ATP level in Spodoptera frugiperda (fall armyworm) Sf9 cells at 0.01 uM after 24 hr by luminescent cell viability assay.
Test [11] deals with Sf9. Nature of the test: Reduction of ATP level in Spodoptera frugiperda (fall armyworm) Sf9 cells at 10 uM after 2 hr by luminescent cell viability assay.
In test [12] the test system is Sf9. Nature of the test: Reduction of ATP level in Spodoptera frugiperda (fall armyworm) Sf9 cells at 1 to 10 uM after 20 to 24 hr by luminescent cell viability assay.
Test [13] has as its system Sf9. Nature of the test: Reduction of ATP level in Spodoptera frugiperda (fall armyworm) Sf9 cells at 0.01 to 10 uM after 4 hr by luminescent cell viability assay.
Test [14] deals with Sf9. As to the kind of experiment: Reduction of ATP level in Spodoptera frugiperda (fall armyworm) Sf9 cells at 10 uM after 4 hr by luminescent cell viability assay.

Take `O=c1[nH]cc(F)c(=O)[nH]1`: the result in test [1] was inactive.

In the case of `COc1ccc(C[C@H]2NC[C@H](O)[C@H]2OC(C)=O)cc1`, the outcome in [2] was inactive. The result in test [3] was Active.

As to `C=C(C)[C@H]1Cc2c(ccc3c2O[C@@H]2COc4cc(OC)c(OC)cc4[C@@H]2C3=O)O1`, the result in test [4] was inactive.

In the case of `CCOCn1c(-c2ccc(Cl)cc2)c(C#N)c(Br)c1C(F)(F)F`, in test [5], the Activity result was “Dose-dependent effect”. For the same compound, the result in test [6] was Active.

Turning to `FC(F)(F)c1ccc(OCCCOc2c(Cl)cc(OCC=C(Cl)Cl)cc2Cl)nc1`, the result in [7], in [9], in test [11] and in test [12] was Active. Also, the outcome in test [8] and in test [10] was inactive. In addition, the Activity entry in test [5] was “Dose-dependent effect”.

With `Cc1nn(C)c(Oc2ccccc2)c1/C=N/OCc1ccc(C(=O)OC(C)(C)C)cc1`, the outcome in [13] was inactive.

As for `N#CC(C#N)=NNc1ccccc1Cl`, the result in [4] was Active. In addition, the Activity entry in test [5] is “Dose-dependent effect”.

Take `CCCCCCCCCCCCC1=C(OC(C)=O)C(=O)c2ccccc2C1=O`: the result in [14] was Active. Besides, in test [5], the Activity entry is “Dose-dependent effect”.
